Test results reported in ChEMBL document CHEMBL1201862, “PubChem BioAssay data set” (2004).
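Briefly, cells in 96-well plates were exposed to five compound concentrations for 48 h, and endpoints were estimated by linear interpolation. GI50: concentration for 50% inhibition of growth.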 Activity calls are given as the source filed them. No stated cut-off is given here; in the data, active = GI50 up to about 1.1 µM and inactive = higher.

Legend:
Test in all cases: growth of human tumour cells (NCI), 48 h
[1] = test system: U-251
[2] = test system: SR
[3] = test system: RXF 393
[4] = test system: SF-268
[5] = test system: NCI-H23
[6] = test system: NCI-H522
[7] = test system: 786-0
[8] = test system: SF-539
[9] = test system: CAKI-1
[10] = test system: CCRF-CEM
[11] = test system: Malme-3M
[12] = test system: SNB-19
[13] = test system: IGROV-1
[14] = test system: SK-MEL-28
[15] = test system: MOLT-4
[16] = test system: SW-620
[17] = test system: SF-295
[18] = test system: M14
[19] = test system: UO-31
[20] = test system: A498

SMILES	GI50 [1]	GI50 [2]	GI50 [3]	GI50 [4]	GI50 [5]	GI50 [6]	GI50 [7]	GI50 [8]	GI50 [9]	GI50 [10]	GI50 [11]	GI50 [12]	GI50 [13]	GI50 [14]	GI50 [15]	GI50 [16]	GI50 [17]	GI50 [18]	GI50 [19]	GI50 [20]
Cn1c(-c2ccccc2)c/c(=N\NS(C)(=O)=O)c2cc(S(=O)(=O)O)ccc21	> 100 µM (inactive)	> 100 µM (inactive)	> 100 µM (inactive)	> 100 µM (inactive)	> 100 µM (inactive)	> 100 µM (inactive)	> 100 µM (inactive)	> 100 µM (inactive)	> 100 µM (inactive)	> 100 µM (inactive)	> 100 µM (inactive)	> 100 µM (inactive)	> 100 µM (inactive)	> 100 µM (inactive)	> 100 µM (inactive)	> 100 µM (inactive)	> 100 µM (inactive)	> 100 µM (inactive)	> 100 µM (inactive)	
O=C(NCCNCCO)N/N=C/c1ccc([N+](=O)[O-])cc1	> 100 µM (inactive)	> 100 µM (inactive)		> 100 µM (inactive)	> 100 µM (inactive)	> 100 µM (inactive)	> 100 µM (inactive)	> 100 µM (inactive)	> 100 µM (inactive)	> 100 µM (inactive)	43.8 µM (inactive)	> 100 µM (inactive)	> 100 µM (inactive)	> 100 µM (inactive)	> 100 µM (inactive)	> 100 µM (inactive)	> 100 µM (inactive)	> 100 µM (inactive)	> 100 µM (inactive)	47.4 µM (inactive)
CC(C)(C)OC(=O)N[C@@H](Cc1ccccc1)C(=O)N1CC[C@@H](C(=O)N2[C@H]3CC4CC[C@@]3(CS2(=O)=O)C4(C)C)N1	> 100 µM (inactive)	> 100 µM (inactive)	> 100 µM (inactive)	> 100 µM (inactive)	50.6 µM (inactive)		> 100 µM (inactive)		> 100 µM (inactive)	51.3 µM (inactive)		93.8 µM (inactive)		> 100 µM (inactive)	> 100 µM (inactive)	62.8 µM (inactive)		74 µM (inactive)		> 100 µM (inactive)
COC1OC(=O)C(OC)C(OC)C1OC (stereo not given)	> 100 µM (inactive)	> 100 µM (inactive)		> 100 µM (inactive)		> 100 µM (inactive)	> 100 µM (inactive)	> 100 µM (inactive)	> 100 µM (inactive)			> 100 µM (inactive)	> 100 µM (inactive)	> 100 µM (inactive)	> 100 µM (inactive)	> 100 µM (inactive)	> 100 µM (inactive)	> 100 µM (inactive)	> 100 µM (inactive)	> 100 µM (inactive)
CC(=O)[O-].Cc1ncc(CO)c(/C=N/NC(N)=S)c1[O-].[Zn+2]	> 100 µM (inactive)	> 100 µM (inactive)	> 100 µM (inactive)	> 100 µM (inactive)	> 100 µM (inactive)		> 100 µM (inactive)	> 100 µM (inactive)		> 100 µM (inactive)	> 100 µM (inactive)	> 100 µM (inactive)	> 100 µM (inactive)	> 100 µM (inactive)	> 100 µM (inactive)	> 100 µM (inactive)	> 100 µM (inactive)	> 100 µM (inactive)	> 100 µM (inactive)	> 100 µM (inactive)
Cc1ccc2c(c1)NC(c1ccc(C(=O)O)cc1)c1cccn1-2 (stereo not given)	30.9 µM (inactive)	> 100 µM (inactive)	19.7 µM (inactive)		> 100 µM (inactive)		19.3 µM (inactive)	> 100 µM (inactive)	15.6 µM (inactive)	> 100 µM (inactive)		22.4 µM (inactive)		> 100 µM (inactive)	64.1 µM (inactive)	> 100 µM (inactive)	37.8 µM (inactive)	46.8 µM (inactive)		22.9 µM (inactive)
CC(C)(C)OC(=O)CN1CCNCCN(CC(=O)OC(C)(C)C)CC1		> 100 µM (inactive)				56.9 µM (inactive)	> 100 µM (inactive)	> 100 µM (inactive)	> 100 µM (inactive)	> 100 µM (inactive)	0.731 µM (active)	> 100 µM (inactive)	> 100 µM (inactive)		> 100 µM (inactive)		> 100 µM (inactive)	> 100 µM (inactive)	> 100 µM (inactive)	> 100 µM (inactive)
N=C(NCc1ccccc1)N/N=C\c1ccnc2ccccc12	15.6 µM (inactive)	2.09 µM (inactive)		12.3 µM (inactive)	15.7 µM (inactive)		13.7 µM (inactive)	15.7 µM (inactive)		1.87 µM (inactive)	10.2 µM (inactive)	17.9 µM (inactive)		12 µM (inactive)	12.6 µM (inactive)	14.8 µM (inactive)	15.3 µM (inactive)	4.84 µM (inactive)	10.4 µM (inactive)	12.5 µM (inactive)
COC(=O)C1c2cc3c(c(O)c2CCC1(C)O)C(=O)c1c(O)cc2c(c1C3=O)OC1OC2(C)C(O)C(N(C)C)C1O (stereo not given)	0.436 µM (active)	< 0.01 µM (active)	0.205 µM (active)	0.906 µM (active)	0.562 µM (active)	1.1 µM (active)	1.03 µM (active)	1.4 µM (inactive)	< 0.01 µM (active)		0.162 µM (active)	0.221 µM (active)	1.02 µM (active)	3.15 µM (inactive)	0.121 µM (active)	0.14 µM (active)	0.382 µM (active)	1.75 µM (inactive)	1.4 µM (inactive)	
O=C1NC(N2CCCC(CO)C2)=N/C1=C\c1ccccc1 (stereo not given)	> 100 µM (inactive)	> 100 µM (inactive)	> 100 µM (inactive)	> 100 µM (inactive)	> 100 µM (inactive)	> 100 µM (inactive)	> 100 µM (inactive)	> 100 µM (inactive)	> 100 µM (inactive)	> 100 µM (inactive)	> 100 µM (inactive)	> 100 µM (inactive)	> 100 µM (inactive)	> 100 µM (inactive)	> 100 µM (inactive)	> 100 µM (inactive)	> 100 µM (inactive)	> 100 µM (inactive)	> 100 µM (inactive)	
CC1=C(c2cc(C(=O)Nc3cccc(C(F)(F)F)c3)ncn2)Sc2ccccc2N1	> 100 µM (inactive)	> 100 µM (inactive)		> 100 µM (inactive)	> 100 µM (inactive)	> 100 µM (inactive)	> 100 µM (inactive)	> 100 µM (inactive)	> 100 µM (inactive)	> 100 µM (inactive)	> 100 µM (inactive)	> 100 µM (inactive)	> 100 µM (inactive)	> 100 µM (inactive)	> 100 µM (inactive)	> 100 µM (inactive)	> 100 µM (inactive)	> 100 µM (inactive)	> 100 µM (inactive)	> 100 µM (inactive)
CC(=O)N(O)Cc1ccccc1	> 100 µM (inactive)	> 100 µM (inactive)	> 100 µM (inactive)	> 100 µM (inactive)	> 100 µM (inactive)	> 100 µM (inactive)	> 100 µM (inactive)	> 100 µM (inactive)	> 100 µM (inactive)	> 100 µM (inactive)	> 100 µM (inactive)	> 100 µM (inactive)	> 100 µM (inactive)	> 100 µM (inactive)	> 100 µM (inactive)	> 100 µM (inactive)	> 100 µM (inactive)	> 100 µM (inactive)	> 100 µM (inactive)	
CC1C2=C(O)CC(C)(C)CC2=NC2=C1C(=O)CC(C)(C)C2 (stereo not given)	> 100 µM (inactive)	> 100 µM (inactive)		> 100 µM (inactive)	> 100 µM (inactive)		> 100 µM (inactive)	> 100 µM (inactive)	> 100 µM (inactive)	> 100 µM (inactive)		> 100 µM (inactive)	> 100 µM (inactive)	> 100 µM (inactive)	> 100 µM (inactive)	> 100 µM (inactive)		> 100 µM (inactive)	> 100 µM (inactive)	> 100 µM (inactive)
CCOC(=O)C(C)NC(=O)C(C)NC(=O)C(C)NC(=O)C(C)NC(=O)C(C)NC(=O)OCc1ccccc1 (stereo not given)	> 100 µM (inactive)	> 100 µM (inactive)	> 100 µM (inactive)	> 100 µM (inactive)	> 100 µM (inactive)	> 100 µM (inactive)	> 100 µM (inactive)	> 100 µM (inactive)	> 100 µM (inactive)	> 100 µM (inactive)	> 100 µM (inactive)	> 100 µM (inactive)	> 100 µM (inactive)	> 100 µM (inactive)	> 100 µM (inactive)	> 100 µM (inactive)	> 100 µM (inactive)	> 100 µM (inactive)	> 100 µM (inactive)	
O=C(O)Cc1ccc(Oc2nc3ccccc3nc2C(=O)O)cc1	> 100 µM (inactive)	0.0187 µM (active)		> 100 µM (inactive)	> 100 µM (inactive)	> 100 µM (inactive)	> 100 µM (inactive)	> 100 µM (inactive)	96.8 µM (inactive)	> 100 µM (inactive)		> 100 µM (inactive)	> 100 µM (inactive)	> 100 µM (inactive)		> 100 µM (inactive)	> 100 µM (inactive)	> 100 µM (inactive)	> 100 µM (inactive)	> 100 µM (inactive)
CN(C)CCNC(=O)c1cccc2c(NC(CCCNC(=N)N)C(=O)O)c3ccccc3nc12 (stereo not given)	14.3 µM (inactive)	1 µM (active)		9.2 µM (inactive)	5.53 µM (inactive)	3.75 µM (inactive)	7.52 µM (inactive)			15.3 µM (inactive)	3.86 µM (inactive)	3.94 µM (inactive)	4.59 µM (inactive)	25.7 µM (inactive)	3.89 µM (inactive)	5.4 µM (inactive)	7.57 µM (inactive)	14 µM (inactive)	2.82 µM (inactive)	19.8 µM (inactive)
